One data set concerns cells. The data set is described as follows: Cell viability, CCK-8 kit. In kind it is cell-based. The following applies: Cy3-Glc-α 12.5 μM. The protocol: (2) Therefore, Cy3-Glc-α should not affect cell viability. The viability of cells treated with Cy3-Glc-α (12.5 μM) by using a CCK-8 kit (Cell Counting Kit-8, Dojindo, Japan) was measured by using an ELISA plate reader (ELx800™, BioTex, USA) DP. CCK-8 is a colorimetric assay for determining the number of viable cells in cell proliferation and cytotoxicity assays. The principle of measuring cell viability of CCK-8 is the same as that of MTT. However, CCK-8 is more sensitive than MTT.
(In general: Tetrazolium assays rely on reduction of a dye to a coloured formazan, in cell work by metabolically active cells.)

The subject of data set [1] is NIH/3T3 cells. The data set is described as follows: FACS-based flow cytometric analysis of probe uptake with/without 11 mM D-glucose. In kind it is cell-based, murine. The following applies: probe 5 μM; glucose-depleted condition normalized to 100. The protocol:
FACS (Fluorescence Activated Cell Sorting)-based flow cytometric analysis was used to compare cellular uptake efficiency in NIH/3T3 cells among the glucose probe [2-(N-Cy3-piperazinoethyl)]-α-D-glucose (GB2-Cy3), synthesized in Example 2, the conventional fluorescent glucose probe 2-NBDG and the glucose probe Cy3-Glc-α, synthesized in Example 1.
NIH/3T3 cells were cultured on 10 cm cell culture dishes and transferred in a volume of 3×10^5 cells into each FACS tube (5 mL, BD). They were washed once with cold PBS before incubation at 37° C. for 30 min in 11 mM D-glucose-containing PBS or glucose-free PBS in the presence of the bioprobe [GB2-Cy3 (5 μM), 2-NBDG (5 μM or 50 μM) or Cy3-Glc-α (5 μM)]. Cells that were incubated without the bioprobes were used as a negative control. After being washed with cold PBS, 1×10^4 NIH/3T3 cells were analyzed on FACSCalibur™ (FACS-based flow cytometer). GBs-Cy3 was detected by FL2 channels. Raw data of 1×10^4 cells are shown in histograms, with the mean values thereof given in the graph of FIG. 21.

The test system of data set [2] is NIH/3T3 cells. The data set is described as follows: Cy3-Glc-α uptake in normal cells versus cancer cells, inverted fluorescent microscope. The data set is classed as cell-based, murine. How it is done:
(§1) 1×10^4 cells were cultured on a Lab-Tek glass chamber slide (Nalge Nunc International, Naperville, Ind., USA) in 35 mm cell culture dish. After 24 h, the cells were treated for each experimental purpose. Then, the medium was replaced with RPMI 1640 medium containing 12.5 μM of Cy3-Glc-α. The cells were exposed to Cy3-Glc-α for 40 min, then washed with PBS 3 times. Finally, the glass chamber slide was taken from culture dish and loaded on the fluorescence microscope (Axiovert 200, Carl Zeiss, Germany). Fluorescence images of 35-50 cells were taken by CCD camera (Axiocam MRm, Germany) and fluorescence intensity of each cell was measured by Axiovision (program for data analysis). An area as ROIs (regions of interest) which contains a cell in phase-contrast image was drawn using Axiovision. Axiovision analyzed CCD camera images and provided the digitized mean of fluorescence intensity in the ROIs that the present inventors had established. The present inventors subtracted the background intensity from the fluorescence intensity to get the fluorescence intensity value that a cell contained. With the method described above, the present inventors digitized fluorescence intensity and performed various experiments.
(2) Based on this observation, further studies in bioimaging and bioapplication were performed only with the α anomer as choice of the bioprobe. […]

Data set [3] deals with A549 cells. Description: Direct competition of Cy3-Glc-α uptake with D-glucose / L-glucose. The data set is classed as cell-based, human. The settings on record: 37° C. How it is done: as §1, with “experiments. […]” for “experiments.”
The test system of data set [4] is A549 cells. The data set is described as follows: Fluorescence imaging analysis of competitive probe uptake. The following applies: probe 12.5 μM. In kind it is cell-based, human. How it is done:
Also, NIH/3T3, A549, C2C12 and 3T3/L1 cells, each having a population of 4×10^4 cells, were cultured on 35 mm cell culture dishes (BD Falcon™ Cell Culture Dish; BD Bioscience, CA, USA). Two days later, the cell culture medium was replaced with a glucose-depleted medium (DMEM, glucose free, GIBCO) supplemented with 0 mM, 11 mM or 55 mM D-glucose and 10 μM GB2-Cy3. After incubation at 37° C. for 30 min, the cells on the cover slips in the 35-mm cell culture dishes were washed twice with cold PBS and the cover slips were mounted on the caster of a fluorescence microscope (Olympus IX71). During observation under the fluorescence microscope, the cells were maintained at 37° C. in the chamber. Fluorescence images of 35-50 cells were taken by CCD camera (Axiocam MRm, Germany) and each cell was measured for fluorescence intensity using the image data analysis program Image-Pro® Plus (MediaCybernetics, USA). As ROIs (regions of interest), areas which encompassed cells within phase-contrast images were drawn using Image-Pro® Plus. Image-Pro® Plus analyzed CCD camera images to produce the digitized mean of fluorescence intensity within the ROIs that the present inventors had established. The background intensity was subtracted from the detected fluorescence intensity to give the fluorescence intensity value that a cell contained. In this manner, the fluorescence intensity was digitized for performing various experiments.
NIH/3T3 and A549 cells were cultured on microscope cover glasses in 35 mm cell culture dishes and subjected to fluorescence imaging analysis according to the protocol.

Turning to `C[N+]1=C(/C=C/C=C2/N(CCCCC(=O)NCCOCCOCCNCCOC3OC(CO)C(O)C(O)C3O)c3ccccc3C2(C)C)C(C)(C)c2ccccc21` [Cy3-Glc-α, [2-(N-Cy3-3,6-dioxaoctane-1,8-diaminoethyl)]-α-D-glucose], the cell viability result in the data set with cells is reported as “does not affect cell viability”. Also, the “reduction in cellular uptake due to 11 mM D-glucose” value in the data set with NIH/3T3 cells [1] is reported as “about 50%”. Moreover, in the data set with NIH/3T3 cells [2], the “Cy3-Glc-α uptake in NIH/3T3 relative to that of A549 cells” value turned out to be 30%. Besides, the “uptake versus L-glucose in the medium” value in the data set with A549 cells [3] (50 mM L-glucose) is “not influenced by the concentration of L-glucose”. Moreover, the “uptake versus concentration of D-glucose in the medium” value in the data set on A549 cells [3] (RPMI 1640 lacking glucose, 10 mM or 50 mM D-glucose) is given as “decreased as the concentration of D-glucose in the medium increased”. In the data set with A549 cells [4], the “cellular uptake versus D-glucose concentration” value was “decreased in the cellular uptake of the glucose analogues in D-glucose dose-dependent manners”; the “change in the fluorescent intensity of ROIs when D-glucose changed from 10 mM to 55 mM” value is on record as “approximately 5%”; the “fluorescent intensity of treated cells, GB2-Cy3 normalized to 100” value was 4.

The values above are taken from patent publication US8772463B2, “Fluorescent dye-labeled glucose bioprobe, synthesis method and usage thereof” (SNU R&DB Foundation, priority 2007, dated 2014).
